System: WT Mtb Erdman strain
Experiment: Microplate Alamar Blue Assay (MABA), Mtb growth inhibition
Format: cell-based, Mycobacterium tuberculosis
Settings: Mycobacterium tuberculosis, ERDMAN, 168 h, Middlebrook 7H9 media, 7 days at 37° C. in 5% CO2

| Structure (SMILES) | IC50 [nM] |
| --- | --- |
| Cc1cc2c(NCCCc3ccc(C(C)(C)C)cc3)nc(C(F)(F)F)nc2s1 [Example 206, N-(3-(4-(tert-butyl)phenyl)propyl)-6-methyl-2-(trifluoromethyl) thieno[2,3-d] pyrimidin-4-amine] | 260 |
| Cc1cc2c(NCCCCc3ccc(Br)cc3)nc(-c3ccoc3)nc2s1 [Example 207, N-(4-(4-bromophenyl)butyl)-2-(furan-3-yl)-6-methylthieno[2,3-d]pyrimidin-4-amine] | 350 |
| Cc1cc2c(NCCCN3CCN(c4ccccc4)CC3)nc(-c3ccoc3)nc2s1 [Example 208, 2-(furan-3-yl)-6-methyl-N-(3-(4-phenylpiperazin-1-yl)propyl)thieno[2,3-d]pyrimidin-4-amine] | 3200 |
| Cc1cc2c(NCCN3CCN(c4ccccc4)CC3)nc(-c3ccoc3)nc2s1 [Example 209, 2-(furan-3-yl)-6-methyl-N-(2-(4-phenylpiperazin-1-yl)ethyl)thieno[2,3-d]pyrimidin-4-amine] | 4900 |
| Cc1cc2c(NCCC(=O)N3CCN(c4ccccc4)CC3)nc(-c3ccoc3)nc2s1 [Example 210, 3-((2-(furan-3-yl)-6-methylthieno[2,3-d]pyrimidin-4-yl)amino)-1-(4-phenylpiperazin-1-yl)propan-1-one] | 8200 |
| Cc1cc2c(NCCCc3ccc(Br)cc3F)nc(-c3ccoc3)nc2s1 [Example 211, N-(3-(4-bromo-2-fluorophenyl)propyl)-2-(furan-3-yl)-6-methylthieno[2,3-d]pyrimidin-4-amine] | 120 |
| Clc1nc(NCCCc2ccccc2)c2ccsc2n1 [Example 218, 2-chloro-N-(3-phenylpropyl)thieno [2,3-d]pyrimidin-4-amine] | 6400 |
| COc1ccc(CCCNc2nc(Cl)nc3sccc23)cc1 [Example 219, 2-chloro-N-(3-(4-methoxyphenyl)propyl)thieno[2,3-d]pyrimidin-4-amine] | > 7700 |
| Fc1ccc([C@@H]2C[C@H]2Nc2nc(Cl)nc3sccc23)cc1F [Example 220, 2-chloro-N-((1R,2S)-2-(3,4-difluorophenyl)cyclopropyl)thieno[2,3-d]pyrimidin-4-amine] | > 7200 |
| Fc1ccc([C@@H]2C[C@H]2Nc2nc(Cl)nc3scnc23)cc1F [Example 221, 5-chloro-N-((1R,2S)-2-(3,4-difluorophenyl)cyclopropyl)thiazolo [5,4-d]pyrimidin-7-amine] | > 10000 |
| Cc1cc2c(N[C@@H]3C[C@H]3c3ccc(F)c(F)c3)nc(Cl)nc2s1 [Example 222, 2-chloro-N-((1R,2S)-2-(3,4-difluorophenyl)cyclopropyl)-6-methylthieno[2,3-d]pyrimidin-4-amine] | 1500 |
| Cc1cc2c(NCCCc3ccc(OC(F)(F)F)cc3)nc(Cl)nc2s1 [Example 223, 2-chloro-6-methyl-N-(3-(4-(trifluoromethoxy)phenyl)propyl) thieno[2,3-d] pyrimidin-4-amine] | 1700 |
| Cc1cc2c(NCCCc3ccccc3)nc(Cl)nc2s1 [Example 224, 2-chloro-6-methyl-N-(3-phenylpropyl)thieno [2,3-d]pyrimidin-4-amine] | 1600 |
| Cc1cc2c(NC/C=C/c3ccccc3)nc(Cl)nc2s1 [Example 225, 2-chloro-N-cinnamyl-6-methylthieno[2,3-d]pyrimidin-4-amine] | 390 |
| Cc1cc2c(N[C@@H]3C[C@H]3c3ccc(F)c(F)c3)nc(OCC(F)(F)F)nc2s1 [Example 226, N-((1R,2S)-2-(3,4-difluorophenyl)cyclopropyl)-6-methyl-2-(2,2,2-trifluoroethoxy)thieno [2,3-d]pyrimidin-4-amine] | 1200 |
| Cc1cc2c(N[C@@H]3C[C@H]3c3ccc(F)c(F)c3)nc(C#N)nc2s1 [Example 227, 4-(((1R,2S)-2-(3,4-difluorophenyl)cyclopropyl)amino)-6-methylthieno[2,3-d]pyrimidine-2-carbonitrile] | 3300 |
| Cc1cccc(CCCNc2nc(C(F)(F)F)nc3sc(C)cc23)c1 [Example 228, 6-methyl-N-(3-(m-tolyl)propyl)-2-(trifluoromethyl)thieno [2,3-d]pyrimidin-4-amine] | 1500 |
| COC(=O)c1cccc(CCCNc2nc(C(F)(F)F)nc3sc(C)cc23)c1 [Example 229, methyl 3-(3-((6-methyl-2-(trifluoromethyl)thieno [2,3-d]pyrimidin-4-yl)amino)propyl) benzoate] | 5900 |
| Cc1cc2c(NCCCc3cc4ccccc4s3)nc(C(F)(F)F)nc2s1 [Example 230, N-(3-(benzo [b]thiophen-2-yl)propyl)-6-methyl-2-(trifluoromethyl) thieno [2,3-d]pyrimidin-4-amine] | 2500 |
| Cc1cc2c(NCCCc3cccc(F)c3)nc(C(F)(F)F)nc2s1 [Example 231, N-(3-(3-fluorophenyl)propyl)-6-methyl-2-(trifluoromethyl)thieno [2,3-d]pyrimidin-4-amine] | 1500 |
| Cc1cc2c(NCCCc3ccc4ccccc4c3)nc(C(F)(F)F)nc2s1 [Example 232, 6-methyl-N-(3-(naphthalen-2-yl)propyl)-2-(trifluoromethyl) thieno[2,3-d] pyrimidin-4-amine] | 1300 |

| Structure (SMILES) | IC50 [nM] |
| --- | --- |
| Cc1cc2c(NCCCc3ccc(OC4CC4)cc3)nc(C(F)(F)F)nc2s1 [Example 233, N-(3-(4-cyclopropoxyphenyl)propyl)-6-methyl-2-(trifluoromethyl) thieno[2,3-d] pyrimidin-4-amine] | 2100 |
| Cc1cc2c(NCCCc3ccc(C4CCCCC4)cc3)nc(C(F)(F)F)nc2s1 [Example 234, N-(3-(4-cyclohexylphenyl)propyl)-6-methyl-2-(trifluoromethyl) thieno[2,3-d] pyrimidin-4-amine] | 1800 |
| Cc1cc2c(NCCCc3ccc(N)cc3)nc(C(F)(F)F)nc2s1 [Example 235, N-(3-(4-aminophenyl)propyl)-6-methyl-2-(trifluoromethyl) thieno[2,3-d]pyrimidin-4-amine] | > 9900 |
| CCCc1ccc(CCCNc2nc(C(F)(F)F)nc3sc(C)cc23)cc1 [Example 236, 6-methyl-N-(3-(4-propylphenyl)propyl)-2-(trifluoromethyl) thieno [2,3-d]pyrimidin-4-amine] | 1400 |
| Cc1cc2c(NCCCc3ccc(C4CC4)cc3)nc(C(F)(F)F)nc2s1 [Example 237, N-(3-(4-cyclopropylphenyl)propyl)-6-methyl-2-(trifluoromethyl) thieno[2,3-d] pyrimidin-4-amine] | 1800 |
| Cc1cc2c(NCCCc3ccc(C#N)cc3)nc(C(F)(F)F)nc2s1 [Example 238, 4-(3-((6-methyl-2-(trifluoromethyl)thieno[2,3-d]pyrimidin-4-yl)amino)propyl) benzonitrile] | > 10000 |
| Cc1cc2c(NCCCc3cccs3)nc(C(F)(F)F)nc2s1 [Example 239, 6-methyl-N-(3-(thiophen-2-yl)propyl)-2-(trifluoromethyl) thieno[2,3-d] pyrimidin-4-amine] | > 6800 |
| Cc1cc2c(NCCCc3cc(F)cc(C(F)(F)F)c3)nc(C(F)(F)F)nc2s1 [Example 240, N-(3-(3-fluoro-5-(trifluoromethyl)phenyl)propyl)-6-methyl-2-(trifluoromethyl) thieno[2,3-d] pyrimidin-4-amine] | 2900 |
| COc1cccc(CCCNc2nc(C(F)(F)F)nc3sc(C)cc23)c1 [Example 241, N-(3-(3-methoxyphenyl)propyl)-6-methyl-2-(trifluoromethyl) thieno[2,3-d] pyrimidin-4-amine] | 3100 |
| Cc1cc2c(NCCCc3ccc(S(C)(=O)=O)cc3)nc(C(F)(F)F)nc2s1 [Example 242, 6-methyl-N-(3-(4-(methylsulfonyl)phenyl)propyl)-2-(trifluoromethyl) thieno[2,3-d] pyrimidin-4-amine] | > 10000 |
| Cc1cc2c(NCCCc3cccc(C#N)c3)nc(C(F)(F)F)nc2s1 [Example 243, 3-(3-((6-methyl-2-(trifluoromethyl)thieno[2,3-d]pyrimidin-4-yl)amino)propyl) benzonitrile] | > 8000 |
| Cc1ccc(CCCNc2nc(C(F)(F)F)nc3sc(C)cc23)cc1 [Example 244, 6-methyl-N-(3-(p-tolyl)propyl)-2-(trifluoromethyl) thieno[2,3-d] pyrimidin-4-amine] | 1000 |
| Cc1cc2c(NCCCc3ccc(Cl)cc3)nc(C(F)(F)F)nc2s1 [Example 245, N-(3-(4-chlorophenyl)propyl)-6-methyl-2-(trifluoromethyl) thieno[2,3-d] pyrimidin-4-amine] | 1800 |
| COC(=O)c1ccc(CCCNc2nc(C(F)(F)F)nc3sc(C)cc23)cc1 [Example 246, methyl 4-(3-((6-methyl-2-(trifluoromethyl)thieno[2,3-d]pyrimidin-4-yl)amino)propyl) benzoate] | > 10000 |
| Cc1cc2c(NCCCc3ccccc3C)nc(C(F)(F)F)nc2s1 [Example 247, 6-methyl-N-(3-(o-tolyl)propyl)-2-(trifluoromethyl) thieno[2,3-d] pyrimidin-4-amine] | 1400 |
| Cc1cc2c(NCCCc3cccc(Cl)c3)nc(C(F)(F)F)nc2s1 [Example 248, N-(3-(3-chlorophenyl)propyl)-6-methyl-2-(trifluoromethyl) thieno[2,3-d] pyrimidin-4-amine] | 1800 |
| Cc1cc2c(NCCCc3ccccc3Cl)nc(C(F)(F)F)nc2s1 [Example 249, N-(3-(2-chlorophenyl)propyl)-6-methyl-2-(trifluoromethyl)thieno [2,3-d]pyrimidin-4-amine] | 4000 |
| CCc1nc(NCCCc2ccc(N(C)C)cc2)c2cc(C)sc2n1 [Example 250, N-(3-(4-(dimethylamino)phenyl)propyl)-2-ethyl-6-methylthieno [2,3-d]pyrimidin-4-amine] | 200 |
| CCc1nc(NCCCc2ccc(C)cc2)c2cc(C)sc2n1 [Example 251, 2-ethyl-6-methyl-N-(3-(p-tolyl)propyl)thieno [2,3-d]pyrimidin-4-amine] | 100 |
| CCc1nc(NCCCc2ccc(OC(F)(F)F)c(F)c2)c2cc(C)sc2n1 [Example 252, 2-ethyl-N-(3-(3-fluoro-4-(trifluoromethoxy)phenyl)propyl)-6-methylthieno[2,3-d]pyrimidin-4-amine] | 600 |
